The values below come from US5962633A, “Cytotoxic T-lymphocyte antigen as cysteine protease inhibitor” (Bayer Corporation, priority 1995, dated 1999).

Read-outs that look alike come from different tables or passages of the source. No end group written: not given here.

Assay [1] concerns cartilage proteoglycan degradation. The conditions noted are these: 100 μM; cited from earlier work.
Assay [2] addresses T1, human liver Cathepsin L (Homo sapiens, UniProt P07711).
T1 construct: from tissue; host or cells: human liver
The assay can be described thus: Cathepsin L fluorescence assay (hydrolysis of Z-Phe-Arg-AMC). In kind it is biochemical. The procedure: A fluorescence based assay was set up according to Barrett and Kirschke (Barrett et al., 1981, Meth. in Enz., 80:535).
The enzyme sample was diluted with 750 μl of assay buffer (340 mM sodium acetate--60 mM acetic acid--4 mM disodium EDTA, pH 5.5 and 8 mM DTT added fresh) and various concentrations of CTAL-2β (a final concentration of 5-50 nM), was added. After an incubation period of 6 minutes at room temperature, 1500 μl of 0.1% Brij 35 was added. The substrate Z-Phe-Arg-AMC (AMC is aminomethyl-coumarin) was added at a final concentration of either 2.5 μM or 5.0 μM.
The fluoresence of the free aminomethyl-coumarin was measured in an SLM 4800S fluorimeter by excitation at 370 nm and emission at 432 nm over a six minute time period. […] In order to calculate the velocities, a linear least squares analysis was performed over the initial linear part of the data.
The Ki value is equal to the negative of the X-axis intercept that gives the same velocity at the different substrate concentrations if there is competitive inhibition (Dixon et al., 1979, Enzymes, 3rd Ed., Academic Press, New York, page, 365).
These peptides were tested for inhibition of Cathepsin L activity using the assays described previously. Briefly, Cathepsin L (19 pM final as determined by active site titration using E-64, Barret & Kirschke, 1991) was added to 750 μL of assay buffer consisting of […] sodium acetate--60 mM acetic acid (pH 5.5), 4 mM disodium EDTA, and 8 mM DTT. Peptides were added at concentrations ranging from on to 35 μM. […] The fluorescence of the free aminomethylcoumarin was measured in an SLM 4800s fluorimeter at excitation of 370 nm and an emission at 432 nm over a 6 minute time period. Fluorence was converted to μM AMC released by using a standard curve generated by plotting μM AMC vs. fluorescence, and plotted vs. time. […] The i.c. 50 values were determined from Dixon plots of the form V-/V+ (velocity without peptide/velocity with peptide) vs. peptide concentration. […]

The subject of assay [3] is proteoglycan release from articular cartilage explants. The assay can be described thus: Micro organ culture assay (MOCA): IL-1 induced proteoglycan release from articular cartilage explants. In kind it is cell-based, calf. The following applies: p117 10 μM (best concentration); IL-1 alpha 50 U/ml. The source says: The assay system used for testing the peptides for inhibitory activity of proteolglycan release is a micro organ culture assay (MOCA). Papain; cetyl pyridinium chloride and chondroitin sulfate type C was purchased from Sigma Chemical Co. (St. Louis, MO). Interleukin 1 alpha was purchased from Collaborative Research. ABCase, chrondroitinase, ABC lyase, and keratanase were obtained from ICL Na^35 SO4 was purchased from NEN.
Articular cartilage explants from calk knee joints were maintained in culture in DMEM medium containing 20 μCi/ml Na ^35 SO4 for 48 hours for the incorporation of label into newly synthesized proteoglycan (PG). The radiolabelled medium was then removed, the radiolabelled explants washed 3×30 ml cold DMEM and placed into a 96 well plate with or without IL-1 (Interleukin-1 alpha, 50 U/ml) and various concentrations of p117. The explants were incubated first for 24 hours in the presence of IL-1 in order to ensure initiation of IL-1 indicated auto-catalysis prior to the addition of various metalloprotease inhibitors for an additional 72 hours.
The newly synthesized radiolabelled proteoglycans released during the cultivation period were subjected to enzymatic digestion with papain. […] The filter was dried and counted after addition of 10 mls of scintillation cocktail (scintillant).

Assay [4] concerns the target papain (Carica papaya, UniProt P00784). The conditions noted are these: read-out: i.c. 50 in Papain Assay; substrate Z-Phe-Arg-AMC; papain 33.3 ng/ml; Dixon plot V-/V+ vs. I. The procedure: The fluorescence was measured and the i.c. 50 was determined.

T1 sequence (P07711 114-288 limits assumed): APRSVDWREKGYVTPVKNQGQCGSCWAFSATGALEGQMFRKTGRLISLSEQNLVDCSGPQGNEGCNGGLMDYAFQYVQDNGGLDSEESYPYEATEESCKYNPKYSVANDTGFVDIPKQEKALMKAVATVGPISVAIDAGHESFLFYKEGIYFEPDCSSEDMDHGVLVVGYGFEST
T1 sequence (P07711 292-333 limits assumed): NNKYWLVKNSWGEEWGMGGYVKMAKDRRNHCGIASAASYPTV
Sequence of papain (P00784 134-345): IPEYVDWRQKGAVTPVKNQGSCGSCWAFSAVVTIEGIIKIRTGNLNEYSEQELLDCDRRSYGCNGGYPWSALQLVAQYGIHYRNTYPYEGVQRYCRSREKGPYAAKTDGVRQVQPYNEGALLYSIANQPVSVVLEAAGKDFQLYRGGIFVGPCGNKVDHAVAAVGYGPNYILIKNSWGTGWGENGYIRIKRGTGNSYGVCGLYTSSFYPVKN

Regarding `CC(C)C[C@H](NC(=O)[C@H]1O[C@@H]1C(=O)O)C(=O)NCCCCN=C(N)N` (relative stereo) [E64, trans-epoxysuccinyl L-leucylamido-(4-guanido)butane], in assay [1], the “inhibition of IL-1 stimulated cartilage proteoglycan degradation” value is “did not work”.

As for `CC(C)CCNC(=O)[C@H](CC(C)C)NC(=O)[C@H]1O[C@@H]1C(=O)O` [Ep475], the “inhibition of IL-1 stimulated cartilage proteoglycan degradation” value in assay [1] is listed as “did not work”. With CRGEMAPDLPEYEDLG [p092], in assay [2] (Cathepsin L 19 pM, 5.0 μM Z-Phe-Arg-NMec (AMC), 6 minute incubation at 25° C., read-out: i.c. 50 (synthetic peptides, Cathepsin L)), the IC50 is 41000 nM. In the case of ENKKKIEAHNADYERGKTSFC [P089], the “inhibition of Cathepsin L at 10 uM peptide” value in assay [2] (peptide 10 uM, printed in the i.c. 50 column) is 25%.

YSLDEERHRRLMWEENKKKIEAH [p117]: the “% inhibition of proteoglycan release” value in assay [3] is reported as “about 30%”.

B1: monomeric CTLA-2β: monomeric form of recombinant CTLA-2β, mass 12.8 kd, reverse-phase purified (protein, UniProt P12400 1-113, looked up)
Protein CTLA-2-beta: MMSAAPSPDPSLDNEWKEWKTTFAKAYSLDEERHRRLMWEENKKKIEAHNADYERGKTSFYMGLNQFSDLTPEEFRTNCCGSSMCRGEMAPDLPEYEDLGKNSYLTPGRAQPE
Consider B1, for which the IC50 was found to be 14 nM in assay [4] and 18.2 nM in assay [2] (reverse-phase purified CTLA-2β, Dixon plot V-/V+ vs. I, substrate Z-Phe-Arg-AMC, read-out: i.c. 50 in Cathepsin L Assay).
